Source: patent publication US4977152A, “Novel tricyclic derivatives which are agonists of cholinergic receptors, and drugs in which they are present” (Societe Anonyme: Sanofi, priority 1986, dated 1990)
Substitutions are numbered along the chain they refer to. pIC50: −log10 of the molar value.

Experiments:
[1] = biological target: T1, M2-type muscarinic cholinergic receptor (Cavia porcellus, UniProt H0VRN8); assay: Test for affinity for the M2-type muscarinic cholinergic receptor: displacement of [3H]N-methylscopolamine on smooth muscle of guinea-pig ileum; type: binding; conditions: guinea-pig ileum smooth muscle homogenate, 0.3 nM [3H]NMS, 20 min at 30° C., pH 7.5
T1 construct: on a homogenate of smooth muscle of guinea-pig ileum; from tissue; host or cells: guinea-pig ileum smooth muscle homogenate
T1 sequence (H0VRN8 1-466): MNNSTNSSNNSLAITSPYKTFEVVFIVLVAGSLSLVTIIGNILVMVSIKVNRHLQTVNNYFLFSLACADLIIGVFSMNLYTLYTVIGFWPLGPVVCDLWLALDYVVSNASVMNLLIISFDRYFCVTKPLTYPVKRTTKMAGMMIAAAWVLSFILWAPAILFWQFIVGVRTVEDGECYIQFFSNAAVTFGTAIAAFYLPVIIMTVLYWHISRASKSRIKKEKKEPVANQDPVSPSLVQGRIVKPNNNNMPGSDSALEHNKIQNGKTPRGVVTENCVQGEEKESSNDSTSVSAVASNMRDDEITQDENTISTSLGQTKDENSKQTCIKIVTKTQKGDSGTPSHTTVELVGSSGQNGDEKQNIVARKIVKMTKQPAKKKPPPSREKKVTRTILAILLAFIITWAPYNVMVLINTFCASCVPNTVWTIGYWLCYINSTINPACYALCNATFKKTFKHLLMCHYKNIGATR
Text: (§1) The M1 -type receptors are concentrated in certain areas of the brain, such as the hippocampus, the cerebral cortex and the striatum, and also in the sympathetic ganglia. These binding sites can be selectively labeled with [^3 H]pirenzepine ([^3 H]PZ). The M2 -type receptors predominate in the heart and ileum and can be labeled with [^3 H]N-methylscopolamine ([^3 H]NMS). To determine the selectivity of our molecules towards the M1 and M2 sites, we studied their interaction in vitro with [^3 H]PZ and [^3 H]NMS bound with a high affinity to membranes of rat hippocampus and membranes of smooth muscle of guinea-pig ileum, respectively.
The interaction with M2 -type muscarinic receptors was studied by in vitro measurement, on a homogenate of smooth muscle of guinea-pig ileum, of the displacement of tritiated N-methylscopolamine ([^3 H]NMS) from its specific binding sites. Aliquots (50 μl) of a 0.625% (w/v) homogenate of smooth muscle of guinea-pig ileum in MEPES buffer (20 mM) containing NaCl (100 mM) and MgCl2 (10 mM) (final pH: 7.5) are incubated for 20 min at 30° C. in the presence of [^3 H]NMS ([…]; final concentration: 0.3 nM) and increasing concentrations of products to be tested. The final volume is 1 ml. The reaction is stopped by centrifugation for 5 min at 15,000 × g. The non-specific binding is determined in the presence of 10 μmol/l of atropine sulfate (Ref.: Hammer R., Berrie C. P., Birdsall N. I. M., Burgen A. S. V. and Hulme E. C., Nature, 283, 90-92, 1980; Hulme E. C., Birdsall N.1.M., Burgen A. S. V. and Mettha P., Mol. pharmacol., 14, 737-750, 1978).
(§2) Table 4 indicates the affinities of the products of the invention for M1 and M2 receptors. The results are expressed as 50% inhibitory concentrations (IC50), i.e. the concentration (in μM) which causes a 50% displacement placement of the tritiated ligand bound to the membrane receptors. The IC50 for displacement of ^3 H-pirenzepine represents the affinity for the M1 receptor; the IC50 for displacement of 3H-NMS represents the affinity for the M2 receptor.

[2] = biological target: T2, M1-type muscarinic cholinergic receptor (Rattus norvegicus, UniProt P08482); assay: Test for affinity for the M1-type muscarinic cholinergic receptor: displacement of [3H]pirenzepine on rat hippocampus homogenate; type: binding
T2 sequence (P08482 1-460): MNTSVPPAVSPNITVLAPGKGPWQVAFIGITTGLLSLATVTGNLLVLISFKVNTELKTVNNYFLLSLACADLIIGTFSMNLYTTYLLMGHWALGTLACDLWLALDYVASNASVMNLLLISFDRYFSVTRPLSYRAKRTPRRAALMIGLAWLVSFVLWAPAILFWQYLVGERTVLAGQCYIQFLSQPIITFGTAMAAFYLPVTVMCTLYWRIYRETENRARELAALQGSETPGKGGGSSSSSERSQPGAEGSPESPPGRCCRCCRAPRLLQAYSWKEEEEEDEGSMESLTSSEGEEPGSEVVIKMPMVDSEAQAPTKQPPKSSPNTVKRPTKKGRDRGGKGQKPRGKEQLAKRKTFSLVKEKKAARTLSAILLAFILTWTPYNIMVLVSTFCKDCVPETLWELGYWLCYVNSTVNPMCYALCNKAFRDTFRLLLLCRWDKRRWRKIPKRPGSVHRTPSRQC
Text: as §1
The interaction of the molecules with M1 -type muscarinic receptors was studied by in vitro measurement, on a homogenate of rat hippocampus, of the displacement of tritiated pirenzepine ([^3 H]PZ) from its specific binding sites. Aliquots (10 μl) of a 5% (w/v) homogenate of rat hippocampus in an Na2 HPO4 buffer (50 mM, pH 7.40) are incubated for 2 h at 4° C. in the presence of [^3 H]pZ ([…]; final concentration: 1 nM) and increasing concentrations of products to be studied. The final volume is 2 ml. The reaction is stopped by centrifugation for 10 min at 50,000 × g. After decantation and washing of the residues, the bound radioactivity is counted by liquid scintillation. The non-specific binding is determined in the presence of 10 μmol/l of atropine sulfate. The 50% inhibitory concentration (IC50) is determined graphically (Ref.: Watson J. D., Roeskoe W. R. and Yamamura H.1., Life Sci., 31, 2019-2029, 1982).
as §2

[3] = biological target: T3, M1 central muscarinic cholinergic receptors (Mus musculus, UniProt P12657); assay: Antagonism of rotational behavior induced by intrastriatal injection of pirenzepine in mice; type: in vivo, mice (female, Swiss, CD 1); conditions: ip, read-out: Pirenzepine antagonism ED50
T3 construct: The intrastriatal injection of PZ into mice induces rotational behavior; from tissue; host or cells: right striatum of living female mice (Swiss, CD 1)
T3 sequence (P12657 1-460): T2 sequence (P08482 1-460) with S309P
Description: Pirenzepine (PZ) is a specific antagonist of M1 central muscarinic cholinergic receptors. The intrastriatal injection of PZ into mice induces rotational behavior. The antagonism of this behavior by the products according to the invention was studied.
The products according to the invention are injected intraperitoneally (i.p.) after solubilization in distilled water or suspension in a 5% solution of gum arabic. The control animals receive an injection of the pure solvent under the same conditions.
The animals used are female mice (Swiss, CD 1, Charles River, France) with a body weight of between 25 and 30 grams.
Pirenzepine is dissolved in a phosphate buffer; the pH of the solution is 6.
The products to be studied or their solvents are injected intraperitoneally, in a volume of 0.4 ml per 20 g of body weight, 15 minutes before a direct injection of pirenzepine at a dose of […] into the right striatum of the mouse, according to the method described by p.
The number of contralateral rotations (rotations in the opposite direction to the side injected) was counted for three 2-minute periods after the injection of pirenzepine: minutes 2 to 4, 8 to 10 and 13 to 15. Each treatment includes 3 to 4 doses and 10 animals per dose. For each treatment, the total number of rotations and the percentage antagonism compared with the control group are calculated.

## Cl.Cl.c1ccc2c(c1)CCCc1cc(NCCN3CCOCC3)nnc1-2 [SR 95639 A, 3-(2-Morpholinoethylamino)-6,7-dihydro-5H-benzocyclohepta[5,6-c]pyridazine dihydrochloride]
[1]
  pIC50: 4.26
[2]; rat hippocampus homogenate, 1 nM [3H]PZ, 2 h at 4° C., pH 7.40
  pIC50: 6.40
[2]; ratio of IC50 M2 (3H-NMS, guinea-pig ileum) to IC50 M1 (3H-pirenzepine, rat hippocampus)
  r = (M2 /M1): 137
[3]
  ED50: 5 mg/kg
